Laboratory results reported in patent US10214567B2, “Tagged hepadnavirus E antigen and its use in screening antiviral substances” (Drexel University, priority 2014, dated 2019).
Entries after “also recorded” stand apart in the source; their conditions may differ.

System: HA-HBeAg production from HepBHAe13 cells
Assay: HA-HBeAg CLIA in HepBHAe13 cells treated with cccDNA formation inhibitors (96-well-plate)
Assay type: cell-based, Hepatitis B virus (HBV)
Settings: tetracycline removed, compounds at indicated concentrations, 0.5% DMSO, day 12 post treatment (FIG. 11)
Text: According to another aspect of the present invention, the in vitro assay method can be used to evaluate compounds/candidate molecules that suppress cccDNA formation. Briefly, cells can be seeded into culture wells and tetracycline can be omitted at the day when cell monolayer becomes confluent. Simultaneously, test compound can be added and tagged hepadnavirus e antigen (like HA-HBeAg) in the medium can be measured by ELISA at the end of treatment (approximately 6 days). […] As an expanding aspect of this in vitro assay method, it is worth to note that the reduction of tagged hepadnavirus e antigen (like HA-HBeAg) in this assay may also indicate that the compound has the potential to inhibit hepadnavirus (like HBV) DNA replication. Such possibility can be investigated through direct measurement of viral core DNA by Southern blot and/or qPCR. […]
FIG. 11. […] At day 12 post treatment, culture fluid was subjected to HA-HBeAg CLIA and readout was plotted as percentage (mean±SD) to control.
For chemiluminescence enzyme immunoassay (CLIA) detection of HA-tagged HBeAg, high sensitivity streptavidin coated plate (Black, cat#: 15525, Thermo Scientific) was washed by PBST (PBS plus 0.05% Tween 20) for 3 times, and then incubated with 50 μl of anti-HA-biotin (cat#: A00203, Genscript; 5 μg/ml in PBS) at RT for 30 min, followed by wash with 200 μl PBST for 3 times. […] The plate was read on a luminometer.

| Structure (SMILES) | HA-HBeAg level in culture fluid (CLIA, percentage to control) |
| --- | --- |
| Cc1nc2cc(NC(=O)c3ccc(S(=O)(=O)N(C)Cc4ccccc4)cc3)ccc2s1 [CCC-0346] | dose-dependent inhibition of HA-HBeAg production; also recorded: dose dependently reduced the HA-HBeAg level |
| O=C(CN(c1cc(C(F)(F)F)ccc1Cl)S(=O)(=O)c1ccccc1)NCc1ccncc1 [CCC-0975] | dose-dependent inhibition of HA-HBeAg production; also recorded: dose dependently reduced the HA-HBeAg level |
